Results published in US20110039825A1, “LIGANDS OF ALPHA-ADRENOCEPTORS, DOPAMINE, HISTAMINE, IMIDAZOLINE AND SEROTONIN RECEPTORS AND THEIR USE” (Alla Chem, LLC, priority 2007, published 2011).

Legend:
[1] = molecular target: T1, recombinant human 5-HT1A (Homo sapiens, UniProt P08908); experiment: radioligand binding to serotonin receptor 5-HT1A ([3H] 8-OH-DPAT); settings: 10 μM ligand
T1 construct: expressed in transfected cells; host or cells: CHO
T1 sequence (P08908 1-422): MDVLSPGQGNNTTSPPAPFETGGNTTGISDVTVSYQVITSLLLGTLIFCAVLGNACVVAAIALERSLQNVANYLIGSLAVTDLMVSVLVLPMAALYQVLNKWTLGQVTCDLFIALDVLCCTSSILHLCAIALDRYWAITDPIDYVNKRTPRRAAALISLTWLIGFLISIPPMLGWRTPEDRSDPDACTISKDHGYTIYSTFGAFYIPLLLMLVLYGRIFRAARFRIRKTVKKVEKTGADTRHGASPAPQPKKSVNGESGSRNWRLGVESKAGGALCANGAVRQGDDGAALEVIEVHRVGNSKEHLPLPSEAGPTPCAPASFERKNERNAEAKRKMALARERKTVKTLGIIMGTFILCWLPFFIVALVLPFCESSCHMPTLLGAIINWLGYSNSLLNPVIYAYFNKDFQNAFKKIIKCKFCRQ
Source text: J Pharmacol Exp Ther. 306(1): 301-309, 2003]. […] Metergoline is used as positive control.

[2] = molecular target: T2, serotonin receptor 5-HT1B (Rattus norvegicus, UniProt P28564); experiment: radioligand binding to serotonin receptor 5-HT1B ([125I] cyanopindolol); settings: 10 μM ligand
T2 construct: membrane species are prepared from rat brains (Wistar) by homogenization of species of rat brain-cortices; from tissue; host or cells: rat (Wistar) brain cortex membranes
Method: Screening of the disclosed compounds for potential ability to interact with serotonin receptor 5-HT1B is carried out by method of radioligand binding. For this purpose membrane species are prepared from rat brains (Wistar) by homogenization of species of rat brain-cortices in glass homogenizer with the subsequent separation of plasmatic membranes from cell nuclei, mitochondrias and cell wreckages by differential centrifugation. […] After incubation the samples are filtered in vacuo on glass-microfiber filters G/F (Millipor, USA), filters are washed three times with cold solution of medium and radioactivity is measured by scintillation counter MicroBeta 340 (Perkin Elmer, USA). […] Serotonin is used as positive control.
Tested compounds' binding to the receptor is determined by their ability to displace radioligand and expressed in percent of displacement (% I). Values of % I are calculated according to the following equation:
wherein: TA—is overall radioactivity in the presence of radioligand only, CA—is radioactivity in the presence of radioligand and tested compound and NA—is radioactivity in the presence of radioligand and Serotonin (10 μM).

[3] = molecular target: T3, recombinant human 5-HT2B receptor (Homo sapiens, UniProt P41595); experiment: radioligand binding to serotonin receptor 5-HT2B ([3H] Lysergic acid diethylamide); settings: 10 μM ligand
T3 construct: expressed in transfected cells; host or cells: CHO-K1
Method: Screening of the disclosed compounds for potential ability to interact with serotonin receptor 5-HT2A is carried out by method of radioligand binding. For this purpose membrane species are prepared from CHO-K1 cells comprising recombinant human 5-HT2B receptor by homogenization of recombinant cells in glass homogenizer with the subsequent separation of plasmatic membranes from cell nuclei, mitochondrias and cell wreckages by differential centrifugation. […] After incubation the samples are filtered in vacuo on glass-microfiber filters G/F (Millipor, USA), filters are washed three times with cold solution of medium and radioactivity is measured by scintillation counter MicroBeta 340 (Perkin Elmer, USA). […] Ketanserin is used as positive control. The tested compounds' binding to the receptor is determined by their ability to displace the radioligand and is expressed in percent of displacement (% I). Values of % I are calculated according to the following equation:
wherein: TA—is the overall radioactivity in the presence of radioligand only, CA—is the radioactivity in the presence of radioligand and tested compound and NA—is the radioactivity in the presence of radioligand and Serotonin (10 μM).

[4] = system: male mice of BALB/c line; experiment: Passive Avoidance of mice in the Shuttle Chamber, memory disturbed by Scopolamine; assay type: in vivo; settings: Scopolamine 0.3 mg/kg
Procedure, shortened: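 Aged male BALB/c mice (20-24 g, ≥8 per group) trained in a light/dark shuttle chamber: entry to dark section punished with 0.6 mA DC for 3 s. Retested 22-24 h later for 5 min, scoring latency to first dark entry, time in light section and number of dark entries; scopolamine used to impair memory.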

[5] = system: male mice of BALB/c line; experiment: Passive Avoidance of mice in the Shuttle Chamber, memory disturbed by MK-801; assay type: in vivo; settings: MK-801 0.1 mg/kg
Method: The testing was carried out as in example 14. […] Concurrently, physiological solution of MK-801 in combination with active ingredient 1.9 (1) 1/2NDSA was injected intraintestinally to independent group of mice before training

[6] = system: male mice of BALB/c line; experiment: Mice Behavior in the Elevated Plus Maze; assay type: in vivo; settings: mice BALB/c
Source text: The length of each arm of the maze was 30 cm, width is 5 cm, and height of the walls was 15 cm. Two opposite arms were closed from both sides and end faces by transparent walls, the other two arms were lit and opened. A mouse was placed in the center of the maze and for the next five minutes the number of entries into opened and closed arms and the time spent in each type of arms was registered. […] The animals usually avoided opened arms (the preference index is between 0.2 and 0.3). Compounds with tranquilizing action increased this index up to 0.5-0.6 or even more and reduced the number of defecations without changing the overall motion activity of the mice (the total number of their entries to the arms).

T2 sequence (P28564 whole entry): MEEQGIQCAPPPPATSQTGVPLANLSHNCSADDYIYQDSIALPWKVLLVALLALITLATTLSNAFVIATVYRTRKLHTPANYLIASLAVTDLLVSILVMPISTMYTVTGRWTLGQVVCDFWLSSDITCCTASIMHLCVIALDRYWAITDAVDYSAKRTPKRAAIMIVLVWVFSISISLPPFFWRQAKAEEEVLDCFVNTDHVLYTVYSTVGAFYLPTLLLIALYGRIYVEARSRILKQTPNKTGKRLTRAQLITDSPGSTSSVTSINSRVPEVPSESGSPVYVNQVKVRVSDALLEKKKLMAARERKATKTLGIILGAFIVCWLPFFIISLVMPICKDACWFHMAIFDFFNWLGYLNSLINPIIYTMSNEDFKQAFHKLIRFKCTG
T3 sequence (P41595 whole entry): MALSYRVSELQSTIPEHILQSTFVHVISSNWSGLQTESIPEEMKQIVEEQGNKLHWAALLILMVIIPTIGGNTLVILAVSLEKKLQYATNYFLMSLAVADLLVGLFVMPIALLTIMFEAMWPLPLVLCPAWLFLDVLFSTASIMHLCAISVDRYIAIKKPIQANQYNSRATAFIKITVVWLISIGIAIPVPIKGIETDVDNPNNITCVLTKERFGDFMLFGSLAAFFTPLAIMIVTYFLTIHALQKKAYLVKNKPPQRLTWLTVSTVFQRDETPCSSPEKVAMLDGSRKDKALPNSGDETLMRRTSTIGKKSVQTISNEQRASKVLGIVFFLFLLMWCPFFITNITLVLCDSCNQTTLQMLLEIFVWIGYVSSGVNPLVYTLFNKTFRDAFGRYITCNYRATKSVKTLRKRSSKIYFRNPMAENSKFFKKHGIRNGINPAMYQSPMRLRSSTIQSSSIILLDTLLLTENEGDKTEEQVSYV

| SMILES | 5-HT1A % inhibition [1] [%] | 5-HT1B % inhibition [2] [%] | 5-HT2B % inhibition [3] [%] | enhancement of memory disturbed by Scopolamine (passive avoidance) [4] | enhancement of memory disturbed by MK-801 (passive avoidance) [5] | anxiolytic (tranquilizing) action in elevated plus maze [6] |
| --- | --- | --- | --- | --- | --- | --- |
| CN1CCc2c(c3cc(F)ccc3n2CCc2ccccc2)C1.Cl [1.1.2(1-6)•HCl] | 16 | 25 | 85 |  |  |  |
| CN1CCc2c(c3ccccc3n2Cc2ccccc2)C1 [1.9(1)·1/2NDSA, bis-(5-benzyl-2-methyl-2,3,4,5-tetrahydro-1H-pyrido[4,3-b]indole) naphthalene-1,5-disulfonate] |  |  |  | nootropic action | act as nootropic | anxiolytic (tranquilizing) action which is comparable with the activity of Buspirone and Lorasepam |
